{"source": "patent US20240058312A1", "about": "“METHODS AND MATERIALS FOR TREATING BONE LOSS” (The Penn State Research Foundation, priority 2021, published 2024)", "key": {"[1]": {"tested_on": "C57BL/6J mice with sciatic nerve, biceps femoris and quadriceps femoris muscle crush injury", "assay": "DEXA scanning of tibial bone after sciatic nerve and muscle crush injury", "assay_type": "in vivo", "details": "40 μg/mouse/day IP for 21 days", "description": "Ten-week-old male C57BL/6J mice (Jackson Laboratories, Bar Harbor, Maine) weighing 25±3 g were used. Sciatic nerve crush injury was performed with muscle crush injury as described elsewhere (Govindappa et al., Int. Immunopharmacol., 82:106330 (2020)). Briefly, after intraperitoneal (IP) ketamine (100 mg/kg)/xylazine (10 mg/kg) anesthesia, the right hindlimb was shaved and prepared with alcohol swabs and povidone-iodine (Betadine). Using a stereo zoom binocular microscope, a lateral skin incision (˜3 cm) was made along the length of the femur and the sciatic nerve (SN) was bluntly exposed through the iliotibial band. Nerve crush injury was performed ˜3 mm proximal to the SN trifurcation and muscle crush injury was performed at the center of Biceps femoris (BF) and Quadriceps femoris (QF) muscle using calibrated forceps (5 mm tip width; 18-1107, Miltex Instruments) for 30 seconds (nerve) and 60 seconds (muscles), respectively. Uninjured contralateral normal limbs were kept without injury as controls. The skin was closed using surgical staples and post-operative slow-release buprenorphine (0.05 mg/kg) was given subcutaneously to all animals as an analgesic. […]\nThe data were analyzed using one-way and two-way analysis of variance (ANOVA) using GraphPad Prism Version 8.2.0. […]"}, "[2]": {"tested_on": "C57BL/6J mice with sciatic nerve, biceps femoris and quadriceps femoris muscle crush injury", "assay": "micro-CT of tibial bone microarchitecture after sciatic nerve and muscle crush injury", "assay_type": "in vivo", "details": "tibial metaphysis, 40 μg/mouse/day IP for 21 days, vs. saline", "description": "Ten-week-old male C57BL/6J mice (Jackson Laboratories, Bar Harbor, Maine) weighing 25±3 g were used. Sciatic nerve crush injury was performed with muscle crush injury as described elsewhere (Govindappa et al., Int. Immunopharmacol., 82:106330 (2020)). Briefly, after intraperitoneal (IP) ketamine (100 mg/kg)/xylazine (10 mg/kg) anesthesia, the right hindlimb was shaved and prepared with alcohol swabs and povidone-iodine (Betadine). Using a stereo zoom binocular microscope, a lateral skin incision (˜3 cm) was made along the length of the femur and the sciatic nerve (SN) was bluntly exposed through the iliotibial band. Nerve crush injury was performed ˜3 mm proximal to the SN trifurcation and muscle crush injury was performed at the center of Biceps femoris (BF) and Quadriceps femoris (QF) muscle using calibrated forceps (5 mm tip width; 18-1107, Miltex Instruments) for 30 seconds (nerve) and 60 seconds (muscles), respectively. Uninjured contralateral normal limbs were kept without injury as controls. The skin was closed using surgical staples and post-operative slow-release buprenorphine (0.05 mg/kg) was given subcutaneously to all animals as an analgesic.\nThe experimental animals (6 animals/group) were randomized to normal saline (0.1 mL/mouse) and 4-AP (40 μg/mouse) treatment groups. 4-AP was given by IP injection immediately after surgery and daily for 21 days. Animals were euthanized using isoflurane on post-injury day 22 to harvest hindlimbs. Harvested hindlimbs were subjected to dual-energy X-ray absorptiometry (DEXA) and microcomputed tomography (micro-CT) scanning to analyze the bone quality.\nThe data were analyzed using one-way and two-way analysis of variance (ANOVA) using GraphPad Prism Version 8.2.0. All values are presented as mean±SEM. Probability (P) values of <0.05 were considered statistically significant."}}, "data": [{"compound": "Nc1ccncc1", "note": "[4-AP, 4-aminopyridine]", "values": [{"measurement": "tibial bone volume", "setting": "[1]; combined nerve and muscle crush injury, P<0.05 vs. saline, FIG. 1A", "value": "significantly improves"}, {"measurement": "BMD (bone mineral density) of tibial bone", "setting": "[1]; nerve and muscle injury associated tibial bone, mean, P<0.05 vs. saline (76.57)", "value": 79.75, "unit": "mg/cm^2"}, {"measurement": "bone volume fraction", "setting": "[2]", "value": "upregulating"}, {"measurement": "structural model index (SMI)", "setting": "[2]", "value": "downregulated"}, {"measurement": "trabecular separation", "setting": "[2]", "value": "downregulated"}, {"measurement": "trabecular thickness", "setting": "[2]", "value": "upregulating"}]}]}
